Experimental data taken from the Kinase Knowledgebase extract (Sharma et al. 2016).

Key:
[1] = molecular target: MAPK14 (UniProt Q16539); test: In vitro Inhibition of MAPK14 Kinase Activity
[2] = molecular target: MAPK14 (human) (UniProt Q16539); test: In vitro Inhibition of TNF-alpha Production in PBMC Cells
[3] = test system: MAPK14 (BALB/cJ mice); test: In vivo Inhibition of LPS-induced TNF-alpha Production; conditions: dose or concentration not given here

Chain of MAPK14 (human) (Q16539 whole entry, looked up): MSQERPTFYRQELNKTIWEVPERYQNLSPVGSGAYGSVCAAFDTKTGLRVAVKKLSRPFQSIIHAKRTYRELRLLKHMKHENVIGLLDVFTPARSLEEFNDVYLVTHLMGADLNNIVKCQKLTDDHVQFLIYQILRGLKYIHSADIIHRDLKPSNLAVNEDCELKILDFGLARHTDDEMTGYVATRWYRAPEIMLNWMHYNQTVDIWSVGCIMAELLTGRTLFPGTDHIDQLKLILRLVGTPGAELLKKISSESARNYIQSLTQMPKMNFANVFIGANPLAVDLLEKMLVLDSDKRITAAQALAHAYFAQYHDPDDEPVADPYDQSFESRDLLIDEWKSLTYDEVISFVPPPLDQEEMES
Chain of MAPK14 (Q16539 whole entry, looked up): as above

IC50 [1]: 10 µM
IC50 [2]: 0.028 µM
Compound: COC(=O)C(=O)c1c(-c2ccc(F)cc2)c(-c2ccncc2)c(N2CCNCC2)n1C
inhibition [3]: 52%
